SMILES strings stand for the structures. “And” between values parts separate entries of the source, which are not always exact repeats. Equal entries are not always repeated.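 How tested: cells in 96-well plates exposed to compound for 48 hours at five concentrations. GI50 is the concentration that inhibits growth by half. Definition used: TGI = concentration required for complete inhibition of growth.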

For this experiment, the system named is MDA-MB-468 breast. Briefly: NCI anticancer screen, dose series, 48 h.
Take `O=C1Nc2ccc3c(c2/C1=C\c1cc2c(cc1Br)OCO2)OCO3`: the GI50 is 0.295 µM and the TGI was found to be 0.978 µM.

With `COc1cc(-c2nn(-c3cccc(NC(=O)CCNc4ccc(N5CCOCC5)cc4)c3)cc2-c2ccncc2)ccc1Cl`, the GI50 is 2.01 µM and the TGI was determined as 22.9 µM.

For `CC(C)OP(=O)(O)c1ncc(-c2ccc(C(F)(F)F)cc2)c(NC2CCCCCC2)n1`, the GI50 was 11.2 µM and the TGI is more than 100 µM.

As to `CCOC(=O)[C@@H]1CSC(CC)=C(C(=O)O)N1`, the GI50 was more than 100 µM and the TGI was more than 100 µM.

For `COc1ccc(/C=C/C(=O)c2cc3c(N)c(C(=O)Nc4ccc(OC)cc4)sc3nc2C)cc1`, the GI50 was 0.135 µM and the TGI is more than 50 µM.

On to `COc1cc(NC2CCCCC2O)c2nc(-c3ccc(Cl)cc3)ccc2c1` (configuration not stated), for which the GI50 is 7.48 µM and the TGI worked out at 98.4 µM.

For `CCn1c(-c2nonc2N)nc2cnc(Oc3cccc(NC(=O)c4ccc(N(C)C)cc4)c3)cc21`, the GI50 is 10.7 µM and the TGI is more than 25 µM.

Consider `CS(=O)(=O)Nc1cc(-c2ccc3ncnc(Nc4cccc(Cl)c4)c3c2)cnc1Cl`, for which the GI50 was 0.145 µM and the TGI was determined as 0.59 µM.

With `CC1(C)N=C(N)N=C(N)N1c1cccc(CCc2ccccc2)c1`, the GI50 is 0.0745 µM and the TGI stood at 2.51 µM.

With `Cc1cc(NN=C(c2ccc(O)cc2)c2ccc(O)cc2)c([N+](=O)[O-])cc1[N+](=O)[O-]`, the GI50 was 4.91 µM and the TGI amounted to 36.7 µM.

Turning to `C#C[C@]1(O)CC[C@H]2[C@@H]3CC=C4c5nc(N)sc5CC[C@]4(C)[C@H]3CC[C@@]21C`, the GI50 was 2.52 µM and the TGI stood at 7.03 µM.

With `CCCCCCCCCCCCCCCC[n+]1ccccc1`, the GI50 was 0.104 µM and 0.194 µM; the TGI is 0.428 µM and 0.793 µM.

For the molecule `COc1cc2cc(Oc3cccc(NC(=O)Nc4cc(C(F)(F)F)cc(C(F)(F)F)c4)c3)c(C)nc2cc1OC`, the GI50 is 1.08 µM and the TGI is 3.96 µM.

In the case of `COc1cc2c3cc1Oc1c(OC)c(OC)cc4c1C(Cc1ccc(O)c(c1)Oc1ccc(cc1)CC3N(C)CC2)N(C)CC4` (configuration not stated), the GI50 is 8.21 µM and the TGI was 23.1 µM.

With `Cc1ccc(C2CC(c3ccc(Nc4ccnc5cc(Cl)ccc45)cc3)=NN2C=O)cc1` (configuration not stated), the GI50 was 1.51 µM and the TGI is more than 100 µM.

On to `COc1ccc(C2=Nn3c(nnc3-n3nc(C)cc3C)SC2)cc1`, for which the GI50 was 0.14 µM and the TGI is more than 100 µM.

With `O=c1[nH]cnc2n[nH]nc12`, the GI50 was 1.31 µM and the TGI amounted to 12.7 µM.

As for `COc1cc(/C=C2\SC(N3CCCCC3)=NC2=O)ccc1OCCCCCCOc1ccc(/C=C2\SC(N3CCCCC3)=NC2=O)cc1OC`, the GI50 was 10.3 µM and the TGI stood at 37.2 µM.

On to `CCc1ccc2c(c1)N(CCO)C1=C(C(=O)OC1)C2c1cc(OC)c(OC)c(OC)c1` (configuration not stated), for which the GI50 is 0.0897 µM and the TGI was determined as 0.347 µM.

`COc1cc2ncnc(Oc3cccc(NC(=O)Nc4cc(C(C)(C)C(F)(F)F)on4)c3)c2cc1OC`: the GI50 is 1.04 µM and 1.26 µM; the TGI is 6.01 µM and 6.4 µM.

As to `COc1ccc2c(c1OC)O/C(=C\c1ncc([N+](=O)[O-])n1C)C2=O`, the GI50 is 2.51 µM and the TGI was found to be 8.23 µM.

For the molecule `NC(=O)/C(=C/n1cnc(-c2cc(C(F)(F)F)cc(C(F)(F)F)c2)n1)c1cncnc1`, the GI50 is 0.373 µM and the TGI came out at 3.01 µM.

As to `C=CC(=O)Nc1cc2c(Nc3ccc(F)c(Cl)c3)ncnc2cc1C#CC(C)(C)N1CCN(C)CC1`, the GI50 was 0.00795 µM and the TGI stood at 0.401 µM.

`COc1cc(-c2nn(-c3cccc(NC(=O)CCN4CCN(c5ccccc5)CC4)c3)cc2-c2ccncc2)ccc1Cl`: the GI50 is 3.03 µM and the TGI turned out to be 51.4 µM.

As for `COc1ccc(-c2cc(/C=C/C(=O)c3ccc(N)cc3)[nH]n2)cc1`, the GI50 was 0.43 µM and the TGI worked out at 2.09 µM.

`CCOC(=O)/C(=C\c1ccc2ccccc2c1)P(=O)(OCC)OCC`: the GI50 is 1.9 µM and the TGI was 3.83 µM.

Take `CC[C@H]1OC(=O)[C@H](C)[C@@H](O[C@H]2C[C@@](C)(OC)[C@@H](O)[C@H](C)O2)[C@H](C)[C@@H](O[C@@H]2O[C@H](C)C[C@H](N(C)C)[C@H]2O)[C@](C)(OC)C/C(C)=C2/O[C@@]1(C)C=C2C`: the GI50 was 1.82 µM and the TGI turned out to be 3.5 µM.

As for `COc1ccc2c(c1)C(=O)c1c-2c(OCCN(C)C)nc2cc(OC)c(OC)cc12`, the GI50 is 3.95 µM and the TGI worked out at 19 µM.

Consider `O=CN1N=C(c2cccc(Nc3ccnc4cc(Cl)ccc34)c2)CC1c1ccc(Cl)cc1` (configuration not stated), for which the GI50 is 0.422 µM and the TGI is 3.17 µM.

On to `C[C@@H]1CCc2ncc(F)cc2[C@H]2CCCN2c2ccn3ncc(c3n2)C(=O)N1`, for which the GI50 is 76.4 µM and the TGI is more than 100 µM.

For the molecule `CN1CC[C@H](c2c(O)cc(O)c3c(=O)cc(-c4ccccc4Cl)oc23)[C@H](O)C1`, the GI50 is 0.0718 µM and the TGI stood at 0.269 µM.

For the molecule `CC(O)[C@H](NC(=O)N[C@@H](CC(N)=O)c1nc(N2CCNCC2)no1)C(=O)O` (some centres not stated), the GI50 is more than 100 µM and the TGI was more than 100 µM.

As for `COc1ccc(C(O)c2cc3c(N)c(C(=O)Nc4cccc(Br)c4C)sc3nc2C)cc1` (configuration not stated), the GI50 is 0.125 µM and the TGI amounted to 19.1 µM.

`CC(=O)Oc1cc2cnc3c4cc(OC(C)=O)c(OC(C)=O)cc4ccc3c2cc1OC(C)=O`: the GI50 is 1.2 µM and the TGI was determined as 4.44 µM.

For the molecule `CCOC(=O)c1c(NC(=O)c2ccc(Cl)cc2)sc2c(CN(C)C)c(O)ccc12`, the GI50 is 3.48 µM and the TGI was determined as 18.6 µM.

`CN(C)c1ccc(-c2ccc(-c3ccc(C(=N)N)cn3)o2)cc1`: the GI50 was 1.39 µM and the TGI came out at 3.05 µM.

Consider `COc1cccc(-c2nc3sccn3c2-c2ccnc(NCCCNS(=O)(=O)c3ccccc3)c2)c1`, for which the GI50 is 2.47 µM and the TGI worked out at 7.83 µM.

For `CCO/C=N/C1=C(C#N)C(c2ccc(OC)cc2)c2sc3c(CC)cccc3c2O1` (configuration not stated), the GI50 is 2.5 µM and the TGI came out at 10.3 µM.

Regarding `CCOC(=O)c1c(CN2CCN(C)CC2)nc2ccc(Cl)cc2c1-c1ccccc1`, the GI50 is 1.8 µM and the TGI worked out at 4.43 µM.

Turning to `O=[N+]([O-])/C=C/c1ccc(Cl)cc1[N+](=O)[O-]`, the GI50 was 1.92 µM and the TGI was determined as 3.69 µM.

On to `CCOc1ccc2cc(-c3nn(CC4CCNCC4)c4ncnc(N)c34)ccc2c1`, for which the GI50 is 14.3 µM and the TGI is 30.2 µM.

For the origin of these results see PubChem BioAssay (NCI).
